“And” between values parts separate entries of the source, which are not always exact repeats. Equal values may be shown once.

Consider 4 compounds from article PMC6783499, “Heteroglycoclusters With Dual Nanomolar Affinities for the Lectins LecA and LecB From Pseudomonas aeruginosa” (Frontiers in Chemistry, 2019).

For this test, the target named is T1, LecA (Pseudomonas aeruginosa, UniProt Q05097).
T1 construct: made in house; host or cells: Escherichia coli BL21(DE3)
Nature of the test: biochemical. The format is binding. Particulars: for –ΔH (binding enthalpy) / n (stoichiometry, glycocluster molecules per lectin monomer) / –ΔG / –ΔH / −TΔS: ITC; for n (stoichiometry, glycocluster molecules per lectin monomer) / –ΔG / –ΔH / −TΔS: 25°C; for n (stoichiometry, glycocluster molecules per lectin monomer): pH 7.5; for –ΔG / –ΔH / −TΔS: per mole of glycocluster; for α (relative potency compared to the monovalent compound) / β (relative potency per sugar unit): relative to βGal-OMe. The protocol:
The resulting hGCs were tested in solution with lectins by Isothermal Titration Calorimetry (Table 1) and their binding properties were compared with homoclusters 15–20 (Berthet et al., [2013]; Thomas et al., [2015b]) displaying either 4 and 16 βGal or αFuc units attached with an oxime or a triazole linker (Figure 3). […] Experiments were performed in direct injection mode (i.e., ligand in syringe and protein in cell) to minimize aggregation problems.
All chemical reagents were purchased from Aldrich (Saint Quentin Fallavier, France) or Acros (Noisy-Le-Grand, France). All protected amino acids and Fmoc-Gly-Sasrin® resin was obtained from Advanced ChemTech Europe (Brussels, Belgium). For peptides and glycopeptides, analytical RP-HPLC was performed on Waters system equipped with a Waters 2695 separations module and a Waters 2487 Dual Absorbance UV/Visible Detector. Analysis was carried out at 1.0 mL/min (EC 125/3 nucleosil 300-5 C18) with UV monitoring at 214 nm and 250 nm using a linear A–B gradient (buffer A: 0.09% CF3CO2H in water; buffer B: 0.09% CF3CO2H in 90% acetonitrile). Purifications were carried out at 22.0 mL/min (VP 250/21 nucleosil 100-7 C18) with UV monitoring at 214 nm and 250 nm using a linear A–B gradient. HRMS and ESI-MS and HRMS spectra of peptides and glycopeptides were measured on an Esquire 3000 spectrometer from Bruker. Lectins LecA and LecB were produced in recombinant form in Escherichia coli BL21(DE3) as described previously (Mitchell et al., [2005]; Blanchard et al., [2008]).
Other compounds were assayed with a VP-ITC isothermal titration calorimeter (Microcal). The experiments were carried out at 25°C. All glycocompounds and lectins LecB and LecA were dissolved in the same buffer composed of 20 mM Tris with 100 mM NaCl and 0.1 mM CaCl2 at pH 7.5. For PEAQ-ITC, the lectins were placed in the microcalorimeter cell (200 μL) at concentrations varying from 35 to 70 μM. […] For VP-ITC, the microcalorimeter cell (1.447 mL) contained the lectins with concentrations between 30 and 100 μM. […] The experimental data were fitted to a theoretical titration curve using the Microcal PEAQ-ITC analysis software, with ΔH (enthalpy change), Ka (association constant), and N (number of binding sites per monomer) as adjustable parameters. Dissociation constant (Kd), free energy change (ΔG), and entropy contributions (TΔS) were derived from the previous ones. Two or three independent titrations were performed for each ligand tested.

T1 sequence (Q05097 whole entry): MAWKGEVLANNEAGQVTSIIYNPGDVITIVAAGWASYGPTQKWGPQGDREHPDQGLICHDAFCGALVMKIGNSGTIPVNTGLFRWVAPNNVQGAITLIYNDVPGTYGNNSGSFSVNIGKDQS

On to `C[C@@H]1NC(=O)[C@H](CCCCNC(=O)/C=N/O[C@H]2O[C@H](CO)[C@@H](O)[C@H](O)[C@@H]2O)NC(=O)CNC(=O)[C@@H]2CCCN2C(=O)[C@H](CCCCNC(=O)/C=N/O[C@H]2O[C@H](CO)[C@@H](O)[C@H](O)[C@@H]2O)NC(=O)[C@H](CCCCNC(=O)CO/N=C/C(=O)NCCCC[C@@H]2NC(=O)CNC(=O)[C@@H]3CCCN3C(=O)[C@H](CCCCNC(=O)/C=N/OCC(=O)NCCCC[C@@H]3NC(=O)[C@H](CCCCNC(=O)/C=N/O[C@H]4O[C@H](CO)[C@@H](O)[C@H](O)[C@@H]4O)NC(=O)CNC(=O)[C@@H]4CCCN4C(=O)[C@H](CCCCNC(=O)/C=N/O[C@H]4O[C@H](CO)[C@@H](O)[C@H](O)[C@@H]4O)NC(=O)[C@H](C)NC(=O)[C@H](CCCCNC(=O)/C=N/O[C@H]4O[C@H](CO)[C@@H](O)[C@H](O)[C@@H]4O)NC(=O)CNC(=O)[C@@H]4CCCN4C(=O)[C@H](CCCCNC(=O)/C=N/O[C@H]4O[C@H](CO)[C@@H](O)[C@H](O)[C@@H]4O)NC3=O)NC(=O)[C@H](CCCCN)NC(=O)[C@H](CCCCNC(=O)CO/N=C/C(=O)NCCCC[C@@H]3NC(=O)[C@H](CCCCn4cc(CO[C@@H]5O[C@H](CO)[C@H](O)[C@H](O)[C@H]5O)nn4)NC(=O)CNC(=O)[C@@H]4CCCN4C(=O)[C@H](CCCCn4cc(CO[C@@H]5O[C@H](CO)[C@H](O)[C@H](O)[C@H]5O)nn4)NC(=O)[C@H](C)NC(=O)[C@H](CCCCn4cc(CO[C@@H]5O[C@H](CO)[C@H](O)[C@H](O)[C@H]5O)nn4)NC(=O)CNC(=O)[C@@H]4CCCN4C(=O)[C@H](CCCCn4cc(CO[C@@H]5O[C@H](CO)[C@H](O)[C@H](O)[C@H]5O)nn4)NC3=O)NC(=O)CNC(=O)[C@@H]3CCCN3C(=O)[C@H](CCCCNC(=O)CO/N=C/C(=O)NCCCC[C@@H]3NC(=O)[C@H](CCCCn4cc(CO[C@@H]5O[C@H](CO)[C@H](O)[C@H](O)[C@H]5O)nn4)NC(=O)CNC(=O)[C@@H]4CCCN4C(=O)[C@H](CCCCn4cc(CO[C@@H]5O[C@H](CO)[C@H](O)[C@H](O)[C@H]5O)nn4)NC(=O)[C@H](C)NC(=O)[C@H](CCCCn4cc(CO[C@@H]5O[C@H](CO)[C@H](O)[C@H](O)[C@H]5O)nn4)NC(=O)CNC(=O)[C@@H]4CCCN4C(=O)[C@H](CCCCn4cc(CO[C@@H]5O[C@H](CO)[C@H](O)[C@H](O)[C@H]5O)nn4)NC3=O)NC(=O)[C@H](C)NC2=O)NC(=O)[C@H](CCCCNC(=O)/C=N/O[C@H]2O[C@H](CO)[C@@H](O)[C@H](O)[C@@H]2O)NC(=O)CNC(=O)[C@@H]2CCCN2C(=O)[C@H](CCCCNC(=O)/C=N/O[C@H]2O[C@H](CO)[C@@H](O)[C@H](O)[C@@H]2O)NC1=O` [Compound 14], for which binding was put at a Kd of 21 ± 4 nM. In addition, under “LecA”, the “–ΔH (binding enthalpy)” value was 51.6 to 58.1 kcal/mol; the “n (stoichiometry, glycocluster molecules per lectin monomer)” value was 0.16; the “–ΔG” value came to 10.5 kcal/mol; the “–ΔH” value stood at 58.13 ± 4.54 kcal/mol. Under “LecA”, the “−TΔS” value was determined as 47.6 kcal/mol; the “α (relative potency compared to the monovalent compound)” value is 7,142; the “β (relative potency per sugar unit)” value is 900 and 893.
As for `C[C@@H]1NC(=O)[C@H](CCCCn2cc(CO[C@@H]3O[C@H](CO)[C@H](O)[C@H](O)[C@H]3O)nn2)NC(=O)CNC(=O)[C@@H]2CCCN2C(=O)[C@H](CCCCn2cc(CO[C@@H]3O[C@H](CO)[C@H](O)[C@H](O)[C@H]3O)nn2)NC(=O)[C@H](CCCCN)NC(=O)[C@H](CCCCn2cc(CO[C@@H]3O[C@H](CO)[C@H](O)[C@H](O)[C@H]3O)nn2)NC(=O)CNC(=O)[C@@H]2CCCN2C(=O)[C@H](CCCCn2cc(CO[C@@H]3O[C@H](CO)[C@H](O)[C@H](O)[C@H]3O)nn2)NC1=O` [Compound 18], for the setting “LecA”, the “n (stoichiometry, glycocluster molecules per lectin monomer)” value turned out to be 0.26; the “–ΔG” value turned out to be 10.5 kcal/mol; the “–ΔH” value is 33.22 ± 0.24 kcal/mol; the “−TΔS” value came out at 22.8 kcal/mol. Also, under “LecA”, the “α (relative potency compared to the monovalent compound)” value is 7,000 and 6,818; the “β (relative potency per sugar unit)” value is 1,700 and 1,705.
Take `C[C@@H]1NC(=O)[C@H](CCCCNC(=O)/C=N/OCC(=O)NCCCC[C@@H]2NC(=O)[C@H](CCCCn3cc(CO[C@@H]4O[C@H](CO)[C@H](O)[C@H](O)[C@H]4O)nn3)NC(=O)CNC(=O)[C@@H]3CCCN3C(=O)[C@H](CCCCn3cc(CO[C@@H]4O[C@H](CO)[C@H](O)[C@H](O)[C@H]4O)nn3)NC(=O)[C@H](C)NC(=O)[C@H](CCCCn3cc(CO[C@@H]4O[C@H](CO)[C@H](O)[C@H](O)[C@H]4O)nn3)NC(=O)CNC(=O)[C@@H]3CCCN3C(=O)[C@H](CCCCn3cc(CO[C@@H]4O[C@H](CO)[C@H](O)[C@H](O)[C@H]4O)nn3)NC2=O)NC(=O)CNC(=O)[C@@H]2CCCN2C(=O)[C@H](CCCCNC(=O)/C=N/OCC(=O)NCCCC[C@@H]2NC(=O)[C@H](CCCCn3cc(CO[C@@H]4O[C@H](CO)[C@H](O)[C@H](O)[C@H]4O)nn3)NC(=O)CNC(=O)[C@@H]3CCCN3C(=O)[C@H](CCCCn3cc(CO[C@@H]4O[C@H](CO)[C@H](O)[C@H](O)[C@H]4O)nn3)NC(=O)[C@H](C)NC(=O)[C@H](CCCCn3cc(CO[C@@H]4O[C@H](CO)[C@H](O)[C@H](O)[C@H]4O)nn3)NC(=O)CNC(=O)[C@@H]3CCCN3C(=O)[C@H](CCCCn3cc(CO[C@@H]4O[C@H](CO)[C@H](O)[C@H](O)[C@H]4O)nn3)NC2=O)NC(=O)[C@H](CCCCN)NC(=O)[C@H](CCCCNC(=O)/C=N/OCC(=O)NCCCC[C@@H]2NC(=O)[C@H](CCCCn3cc(CO[C@@H]4O[C@H](CO)[C@H](O)[C@H](O)[C@H]4O)nn3)NC(=O)CNC(=O)[C@@H]3CCCN3C(=O)[C@H](CCCCn3cc(CO[C@@H]4O[C@H](CO)[C@H](O)[C@H](O)[C@H]4O)nn3)NC(=O)[C@H](C)NC(=O)[C@H](CCCCn3cc(CO[C@@H]4O[C@H](CO)[C@H](O)[C@H](O)[C@H]4O)nn3)NC(=O)CNC(=O)[C@@H]3CCCN3C(=O)[C@H](CCCCn3cc(CO[C@@H]4O[C@H](CO)[C@H](O)[C@H](O)[C@H]4O)nn3)NC2=O)NC(=O)CNC(=O)[C@@H]2CCCN2C(=O)[C@H](CCCCNC(=O)/C=N/OCC(=O)NCCCC[C@@H]2NC(=O)[C@H](CCCCn3cc(CO[C@@H]4O[C@H](CO)[C@H](O)[C@H](O)[C@H]4O)nn3)NC(=O)CNC(=O)[C@@H]3CCCN3C(=O)[C@H](CCCCn3cc(CO[C@@H]4O[C@H](CO)[C@H](O)[C@H](O)[C@H]4O)nn3)NC(=O)[C@H](C)NC(=O)[C@H](CCCCn3cc(CO[C@@H]4O[C@H](CO)[C@H](O)[C@H](O)[C@H]4O)nn3)NC(=O)CNC(=O)[C@@H]3CCCN3C(=O)[C@H](CCCCn3cc(CO[C@@H]4O[C@H](CO)[C@H](O)[C@H](O)[C@H]4O)nn3)NC2=O)NC1=O` [Compound 20]: the “lower β factor than 18” value (LecA, 20 versus 18) was 2.5. Moreover, where the note is “LecA”, the “–ΔH (binding enthalpy)” value is 90.3 kcal/mol; the “n (stoichiometry, glycocluster molecules per lectin monomer)” value was determined as 0.09; the “–ΔG” value was 10.7 kcal/mol; the “–ΔH” value is 90.49 ± 3.59 kcal/mol. In addition, where the note is “LecA”, the “−TΔS” value was determined as 79.78 kcal/mol; the “α (relative potency compared to the monovalent compound)” value was 10,000 and 10,714; the “β (relative potency per sugar unit)” value came to 670. Further, for the setting “LecA, abstract”, the “binding to LecA in words” value is recorded as “nanomolar affinity”.
With `CO[C@@H]1O[C@H](CO)[C@H](O)[C@H](O)[C@H]1O` [βGal-OMe, methyl β-D-galactoside], where the note is “LecA”, the “α (relative potency compared to the monovalent compound)” value amounted to 1 and the “β (relative potency per sugar unit)” value was 1.
